US20140113964A1, “METHOD OF PREVENTING AND TREATING ALLERGIC AIRWAY DISEASES VIA INTRANASAL GABEXATE MESILATE” (priority 2012, published 2014)
Where a SMILES comes first, the peptide text is derived from it. [ ]: non-standard residue; d: D form. The star is where a group is joined. Sta = CC(C)C[C@H](N)[C@@H](O)CC(=O)O; Isovaleryl = CC(C)CC(=O)*

Columns and labels:
[1] = tested on: protease activity of CraA; assay: azocasein assay of the protease activity of CraA with protease inhibitors; format: biochemical, American cockroach; settings: azocasein substrate, 37° C., 30 mins, absorbance at 440 nm; FIG. 1
Protocol: In brief, azocasein was used as a substrate to measure the protease activity of CraA. Twenty μL of CraA was added into 80 μL azocasein solution (0.5% (w/v), lysed in 100 mM phosphate buffer) and incubated in 37° C. water bath for 30 mins. Afterwards, 20 μL of 10% trichloroacetic acid was added to stop the reaction. Further, the mixture was centrifuged with 6000 g for 10 mins. Consequently, 50 μL of supernatant was mixed with 50 μL of NaOH (0.2N), and the absorbance was measure at 440 nm. Moreover, various protease inhibitors were applied to inhibit the protease activity of CraA, for instance, PMSF (serine protease), aprotinin (serine protease), pepstatin (aspartic acid protease), E-64 (cysteine protease) and EDTA (metalloprotease), so as to confirm the serine protease activity of CraA.
With reference to FIG. 1 for a schematic view of inhibition of protease activity of CraA in accordance with an embodiment of the present invention, the protease activity inhibition was shown after treatment of different kinds of […].

Beas2B cells [2] = assay: cell viability of Beas2B cells, trypan blue staining and counting; format: cell-based, Human
Protocol: With reference to FIG. 5 for a schematic view of cell viability of Beas2B cells treated with gabexate mesilate (GM) in accordance with an embodiment of the present invention, 3×10^5 Beas2B cells were seeded in a 3.5-cm dish with subsequently starvation for 16 hrs. After treating the cells with gabexate mesilate of various concentrations for 24 hrs, the cells were stained with trypan blue and counted the numbers of total cells, dead cells and survived cells so as to convert the numbers into a viability of the cells.
Referring to FIG. 5, the IC50 of the cells to gabexate mesilate is 600 μg/mL, that is, the cell viability with respect to gabexate mesilate at concentration of 600 μg/mL is 50%. […] Accordingly, the pharmaceutical effective amount of the composition comprising gabexate mesilate may be between 1-600 μg/mL, preferably between 10-300 μg/mL.

Beas2B cells [3] = assay: CraA-induced dissociation of Beas2B cells, bright field microscope; format: cell-based, Human; settings: 36, 75, 150 or 300 μg/mL gabexate mesilate for 30 mins, then 5 μg/mL CraA; FIG. 6
Protocol: With reference to FIG. 2 is a schematic view of Beas2B cells treated with various doses of CraA in accordance with an embodiment of the present invention, 3×10^5 Beas2B cells were seeded in a 6-well plate and treated with 0, 5, 10, 20, 30 and 40 μg/mL of CraA, respectively. Afterwards, the cells were observed by the bright field microscope.

[4] = tested on: IL-8, MCP-1, GM-CSF and CCL20 genes; assay: RT-PCR of chemokine genes (IL-8, MCP-1, GM-CSF, CCL20) in Beas2B cells treated with CraA; format: cell-based, Human; settings: pre-treatment 30 mins, then 5 μg/mL CraA, increasing doses; FIG. 7
Protocol: Referring to FIG. 4, the mRNA levels of various cytokines in response to treatment of CraA was measured by RT-PCR. To be brief, 3×10^5 Beas2B cells were seeded in a 6-well plate and treated with 5 μg/mL of CraA for 1, 2, 3, 4, 5, 16 and 24 hrs, respectively. After the treatment, the cells were harvested by TRIzol (Invitrogen), and RNA of the cells was extracted. The extracted RNA was reverse-transcribed into cDNA by SuperScript polymerase (Invitrogen) according to the manufacturer's instruction. Moreover, IL-8, MCP-1, GM-CSF and CCL20 genes were amplified by RT-PCR and analyzed by 2% agarose gel. The expression levels of the above mentioned genes were normalized with the expression of β-actin.

IL-8 and MCP-1 proteins = assay: IL-8 and MCP-1 protein levels in Beas2B cells treated with CraA; format: cell-based, Human; settings: pre-treatment 30 mins, then 5 μg/mL CraA, time courses; FIG. 8
Protocol: With reference to FIGS. 6-8 for a schematic view of protection effects of gabexate mesilate (GM) on Beas2B cells treated with CraA, a schematic view of chemokines detected by RT-PCR in Beas2B cells treated with CraA and gabexate mesilate and a quantification result of IL-8 and MCP-1 proteins in Beas2B cells treated with CraA and gabexate mesilate in accordance with an embodiment of the present invention, 3×10^5 Beas2B cells were seeded in a 6-well plate and subsequently treated with gabexate mesilate for 30 mins. Afterwards, the cells were further treated with 5 μg/mL of CraA. Consequently, the cells were either observed by bright field microscope and analyzed the gene expression and the protein level of the cytokines, such as IL-8, MCP-1, GM-CSF and CCL20, as mentioned above.

murine asthma model = settings: intra-peritoneal injection; cited from earlier work

CC(C)C[C@H](NC(=O)[C@H]1O[C@@H]1C(=O)O)C(=O)NCCCCN=C(N)N [E-64]
inhibition of the protease activity of CraA [1]: not significantly inhibited

O=C(O)CN(CCN(CC(=O)O)CC(=O)O)CC(=O)O [EDTA]
inhibition of the protease activity of CraA [1]: not significantly inhibited

O=S(=O)(F)Cc1ccccc1 [PMSF]
inhibition of the protease activity of CraA [1]: obviously inhibited

CCOC(=O)c1ccc(OC(=O)CCCCCN=C(N)N)cc1.CS(=O)(=O)O [gabexate mesilate]
survived cells (Beas2B cells [2]; 1200 μg/mL, 24 hrs): no survived cells
IC50 of the cells to gabexate mesilate (cell viability) (Beas2B cells [2]; Beas2B cells, 24 hrs treatment, trypan blue, FIG. 5): 600 µg/mL
dissociation of Beas2B cells treated with CraA (Beas2B cells [3]): reverse the dissociation of the cells
expression of IL-8, MCP-1, GM-CSF and CCL20 genes induced by CraA [4]: obviously decreases the gene expression induced by CraA
protein levels of IL-8 and MCP-1 (IL-8 and MCP-1 proteins): significantly decreased
allergen-induced airway inflammation and eosinophilia (murine asthma model): attenuates allergen-induced airway inflammation and eosinophilia

CC(C)CC(=O)N[C@H](C(=O)N[C@H](C(=O)N[C@@H](CC(C)C)[C@@H](O)CC(=O)N[C@@H](C)C(=O)N[C@@H](CC(C)C)[C@@H](O)CC(=O)O)C(C)C)C(C)C [pepstatin] (Isovaleryl-VV[Sta]A[Sta]-OH)
inhibition of the protease activity of CraA [1]: not significantly inhibited

aprotinin
inhibition of the protease activity of CraA [1]: obviously inhibited
